In ChEMBL document CHEMBL1130089 (J Med Chem, 1997):
Active and inactive are the calls of the source. The rule behind the calls is not given here.

Experiments:
[1] = target: T1, Estrogen receptor (Homo sapiens, UniProt Q92731+P03372); assay: Irreversible inhibition of [3H]estradiol binding to estrogen receptor; (-) indicates decrease in estradiol binding sites inactivated by the compound; type: protein assay
[2] = target: T1, Estrogen receptor
Description: Relative affinity constant for cytosolic estrogen receptor

[3] = target: T1, Estrogen receptor; assay: Agonist transcriptional activation in MVLN cells relative to 0.1 nM estradiol; type: functional, cell-based
[4] = target: T1, Estrogen receptor; assay: Compound concentration required to induce transcriptional activation in MVLN cells comparable to 50% of 0.1 nM estradiol response; type: functional, cell-based
[5] = target: T1, Estrogen receptor; remark: listed apart in the source
[6] = target: T1, Estrogen receptor; assay: Compound concentration required to induce transcriptional activation in MVLN cells equal to 50% of 0.1 nM estradiol response; type: functional, cell-based

C[C@]12C[C@H](CCOS(C)(=O)=O)[C@@H]3c4ccc(O)cc4CC[C@H]3[C@@H]1CC[C@@H]2O was tested, and the Covalent binding [1] was “inactive”, the RAC [2] was 8.15 and the Activity [3] was 95%. It also gave an EC50 [4] of 6 nM.

For Cc1ccc(S(=O)(=O)OCCCCCCCCCC[C@H]2C[C@]3(C)[C@@H](O)CC[C@H]3[C@@H]3CCc4cc(O)ccc4[C@@H]23)cc1, the RAC [2] was 2.59, the Covalent binding [5] was < 10 and the IC50 [6] was 4 nM.

C[C@]12C[C@H](CCCCOS(C)(=O)=O)[C@@H]3c4ccc(O)cc4CC[C@H]3[C@@H]1CC[C@@H]2O was tested, and the Covalent binding [1] was “inactive”, the RAC [2] was 36.8 and the IC50 [6] was 6 nM.

For C=CCC[C@H]1C[C@]2(C)[C@@H](O)CC[C@H]2[C@@H]2CCc3cc(O)ccc3[C@@H]12, the RAC [2] was 38.6, the Activity [3] was 80% and the EC50 [4] was < 10 nM.

With C[C@]12C[C@H](CCCCNC(=O)CBr)[C@@H]3c4ccc(O)cc4CC[C@H]3[C@@H]1CC[C@@H]2O the Covalent binding [1] was “inactive”, the RAC [2] was 1.64 and the IC50 [6] was 320 nM.

In the case of C[C@]12C[C@H](CCCCBr)[C@@H]3c4ccc(O)cc4CC[C@H]3[C@@H]1CC[C@@H]2O, the Covalent binding [1] is reported as “inactive”, the RAC [2] is reported as 11 and the IC50 [6] is reported as 3 nM.

With C[C@]12C[C@H](CCNC(=O)CBr)[C@@H]3c4ccc(O)cc4CC[C@H]3[C@@H]1CC[C@@H]2O the Covalent binding [1] was “inactive”, the RAC [2] was 0.38 and the Activity [3] was 90%. The EC50 [4] was 110 nM.
